Laboratory results from PMC5951806, “Rapid labelling and covalent inhibition of intracellular native proteins using ligand-directed N-acyl-N-alkyl sulfonamide” (Nature Communications, 2018).

Target: T1, Isoform 2 of Calcium-binding mitochondrial carrier protein Aralar2 (SLC25A13) (Homo sapiens, UniProt Q9UJS0)
T1 sequence (Q9UJS0 2-676 isoform Q9UJS0-2): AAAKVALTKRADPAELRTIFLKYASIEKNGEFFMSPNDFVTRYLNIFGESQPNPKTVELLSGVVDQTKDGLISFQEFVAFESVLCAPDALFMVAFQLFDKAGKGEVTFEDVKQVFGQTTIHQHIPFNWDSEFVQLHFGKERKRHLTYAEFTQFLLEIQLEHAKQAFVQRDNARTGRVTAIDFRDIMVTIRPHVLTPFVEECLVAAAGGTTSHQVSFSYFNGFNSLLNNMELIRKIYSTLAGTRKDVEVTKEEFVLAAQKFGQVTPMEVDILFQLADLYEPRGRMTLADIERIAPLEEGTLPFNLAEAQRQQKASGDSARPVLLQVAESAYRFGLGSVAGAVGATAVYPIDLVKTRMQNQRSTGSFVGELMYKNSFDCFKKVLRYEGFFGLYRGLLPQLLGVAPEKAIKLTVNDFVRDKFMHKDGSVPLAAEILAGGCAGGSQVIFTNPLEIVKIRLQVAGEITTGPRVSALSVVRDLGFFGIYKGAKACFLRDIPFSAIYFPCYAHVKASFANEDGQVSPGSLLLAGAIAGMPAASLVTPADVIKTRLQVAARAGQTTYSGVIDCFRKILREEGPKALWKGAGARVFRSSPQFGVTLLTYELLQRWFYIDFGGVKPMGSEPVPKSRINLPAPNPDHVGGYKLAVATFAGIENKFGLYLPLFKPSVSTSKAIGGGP
Assay: TMT LC-MSMS of 11-labelled proteins
Assay type: cell-based

CC(=O)Oc1ccc2c(c1)Oc1cc(OC(C)=O)ccc1C21OC(=O)c2cc(C(=O)NCCOCCOCCNC(=O)CCCC(=O)N(CC#N)S(=O)(=O)c3ccc(C(=O)NCCCn4c(Sc5cc6c(cc5I)OCO6)nc5c(N)ncnc54)cc3)ccc21 [compound 11]
Abundance Ratio: (11) / (11 with PU-H71) (sheet Exp2, SLC25A13): 0.894
Abundance Ratio: (11) / (DMSO) (sheet Exp2, SLC25A13): 2.324
Abundances (Grouped): 11 (sheet Exp2, SLC25A13): 24.4
Abundances (Grouped): 11 with PU-H71 (sheet Exp2, SLC25A13, with PU-H71): 27.3
Abundance Ratio: (11) / (DMSO) (sheet Merged, SKBR3 cells, 11 0.5 µM 3 h vs DMSO): 2.324
Abundance Ratio: (11) / (11 with PU-H71) (sheet Merged, SKBR3 cells, 11 0.5 µM 3 h vs with PU-H71 10 µM): 0.894
